Measurements reported in patent US20260041653A1, “AN HDAC INHIBITOR FOR TREATING CANCER WITH A MODIFIED STK11 ACTIVITY OR EXPRESSION” (Tango Therapeutics, Inc., priority 2022, published 2026).
Marks after values point to notes of the source that are not given here.

Tests used:
[1] = target: T1, HDAC10 (Homo sapiens, UniProt Q969S8); assay: Cellular NanoBRET assay, HDAC10; format: cell-based
T1 construct: expressed in transfected cells

[2] = Caverage in mice with STK11-deleted MC38 tumors; format: in vivo, mouse; conditions: doses used in FIG. 12B and 12C

T1 sequence (Q969S8 whole entry): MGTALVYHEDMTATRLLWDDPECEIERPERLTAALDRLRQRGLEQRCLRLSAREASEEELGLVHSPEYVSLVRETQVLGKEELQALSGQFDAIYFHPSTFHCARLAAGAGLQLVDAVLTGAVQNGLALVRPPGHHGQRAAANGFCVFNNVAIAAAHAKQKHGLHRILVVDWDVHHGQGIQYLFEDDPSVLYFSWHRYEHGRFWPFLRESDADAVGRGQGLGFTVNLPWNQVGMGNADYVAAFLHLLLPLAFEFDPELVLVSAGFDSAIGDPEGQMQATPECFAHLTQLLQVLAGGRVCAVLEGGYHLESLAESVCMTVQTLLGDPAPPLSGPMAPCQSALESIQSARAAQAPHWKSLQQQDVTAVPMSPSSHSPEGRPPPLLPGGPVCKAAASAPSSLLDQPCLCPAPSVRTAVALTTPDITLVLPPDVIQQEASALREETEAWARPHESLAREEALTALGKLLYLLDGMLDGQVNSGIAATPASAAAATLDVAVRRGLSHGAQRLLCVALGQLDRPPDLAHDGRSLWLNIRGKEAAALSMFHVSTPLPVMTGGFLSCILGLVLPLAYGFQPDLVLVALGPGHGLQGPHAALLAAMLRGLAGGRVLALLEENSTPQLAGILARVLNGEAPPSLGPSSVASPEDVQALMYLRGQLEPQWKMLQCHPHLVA

SMILES | IC50 [1] | Cavg, u [2]
Nc1cc(F)ccc1NC(=O)c1ccc(CNC(=O)/C=C/c2cccnc2)cc1 [Chidamide, reference compound] | > 30 µM | –
O=C(CCCCCCC(=O)Nc1ccccc1)NO [Vorinostat, reference compound] | – | 0.132* uM
